Assay results from US10106515B2, “1-(cyclopent-2-en-1-yl)-3-(2-hydroxy-3-(arylsulfonyl)phenyl)urea derivatives as CXCR2 inhibitors” (GLAXOSMITHKLINE INTELLECTUAL PROPERTY DEVELOPMENT LIMITED, priority 2014, dated 2018).

Tested on: upregulation of CD11b in GROα stimulated neutrophils in human whole blood
Test: Human whole blood assay (CD11b upregulation)
Format: cell-based
Conditions: Homo sapiens, Neutrophil, inhibition of CD11b upregulation, GROα 33 nM final, flow cytometry, read-out: pIC50 (human whole blood assay) (converted)
Method in brief: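 Heparinised human whole blood preincubated 15 min at 37 °C with compound (10-point, 1:3 dilutions), then stimulated with 33 nM final GROα for 15 min at 37 °C. CD11b-FITC/CD16-PE staining on ice, lysis/fixation, flow cytometry; neutrophils gated by side scatter and CD16.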

CC1=CCC[C@H]1NC(=O)Nc1ccc(Cl)c(S(=O)(=O)[C@@]2(C)CCOC2)c1O [Compound 195, 1-(4-chloro-2-hydroxy-3-(((S)-3-methyltetrahydrofuran-3-yl)sulfonyl)phenyl)-3-((R)-2-methylcyclopent-2-en-1-yl)urea]
IC50: 39.8 nM
